According to patent publication US8394592B2, “Methods for assessing cancer susceptibility to carcinogens in tobacco products” (The Board of Regents of the University of Texas System, priority 2006, dated 2013):
“And” between values parts separate entries of the source, which are not always exact repeats. Identical values can stand only once.

System: peripheral blood lymphocytes
Experiment: Cytokinesis-block micronucleus (CBMN) assay, NNK-treated lymphocyte cultures of lung cancer cases and controls
Type: cell-based, human
Parameters: Control Subjects, % with ≧5 NNK-induced MN / Control Subjects, % with 0 or 2 NNK-induced NPBs / Control Subjects, % with 3 or 5 NNK-induced NPBs / Control Subjects, % with 1 NNK-induced NBUDs: concentration or dose not given beside the values; Control Subjects, % with 3 or 4 NNK-induced MN: tested at 0.24 mM
Settings: for NNK-induced NPBs, Mean ± SE / NNK-induced NPBs, Median / NNK-induced MN, Mean ± SE / NNK-induced MN, Median / NNK-induced NBUDs, Mean ± SE / NNK-induced NBUDs, Median: Control, 0.24 mM NNK
Experimental: The CBMN test was performed using the cytochalasin B technique described by Fenech and Morley (22) and following recommendations from The International Collaborative Project on Micronucleus Frequency in Human Populations (HUMN Project) to measure MN, NPBs and NBUDs in untreated cells and NNK-treated cells (27). Duplicate lymphocyte cultures were prepared for each study subject. Each culture contained 2.0×10^6 cells in 5 mL RPMI 1640 medium supplemented with 100 U/mL penicillin, 100 μg/mL streptomycin, 10% fetal bovine serum, and 2 mM L-glutamine (Gibco-Invitrogen, Carlsbad, Calif.) and 1% phytohemagglutinin (Remel, Lenexa, Kans.). For the cultures treated with NNK, 24 hours after initiation, the PBLs were centrifuged and the supernatant growth medium was removed and reserved. The PBLs were resuspended in 5 mL of serum-free RPMI 1640 medium supplemented with 0.24 mM NNK (a dose previously used by us and others (23-26) (CAS No. 64091-91-4, National Cancer Institute, Midwest Carcinogen Repository, Kansas City, Mo.; purity>98%) and incubated at 37° C. in the presence of 5% CO2 for 2 hours.
Next, the PBLs were washed twice with serum-free RPMI 1640, transferred to clean tubes and re-incubated for […] in the reserved supernatant. At 44 hours after initiation, cells were blocked in cytokinesis by adding cytochalasin B (Sigma, St. Louis, Mo.; final concentration 4 µg/mL). Similarly, cultures for the determination of spontaneous damage (untreated cells) were handled in the same manner, with the exception of treatment with NNK. The total incubation time for all cultures was 72 hours. After incubation, the cells were fixed in 3:1 methanol:glacial acetic acid, dropped onto clean microscopic slides, air-dried and stained with Giemsa stain. For each sample, 1000 binucleated cells were scored blindly using a Nikon E-400 light optical microscope following the scoring criteria outlined by HUMN Project (2,22,27); the numbers of MN, NPBs, and NBUDs per 1000 binucleated cells were recorded. For quality control, 20% of the slides were randomly selected and blindly rescored and the results compared with the original scoring.

[1] = MN/1000 binucleated cells, 130 controls
[2] = MN/1000 binucleated cells, 139 cases
[3] = lymphocytes from patients with lung cancer vs controls
[4] = per 1000 binucleated cells, 130 controls
[5] = per 1000 binucleated cells, 139 cases

CN(CCCC(=O)c1cccnc1)N=O [NNK, 4-(methylnitrosamino)-1-(3-pyridyl)-1-butanone]
NNK-induced NPBs, Mean ± SE (Females): 2.68 ± 0.19 per 1000 binucleated cells
NNK-induced NPBs, Median (Females): 2.0 per 1000 binucleated cells
NNK-induced MN, Mean ± SE (History of Alcohol Use No): 2.54 ± 0.15 per 1000 binucleated cells
NNK-induced MN, Median (History of Alcohol Use No): 3.00 per 1000 binucleated cells
NNK-induced NBUDs, Mean ± SE (History of Alcohol Use No): 0.14 ± 0.04 per 1000 binucleated cells
NNK-induced NBUDs, Median (History of Alcohol Use No): 0.00 per 1000 binucleated cells
NNK-induced NPBs, Mean ± SE (History of Alcohol Use No): 2.40 ± 0.13 per 1000 binucleated cells
NNK-induced NPBs, Median (History of Alcohol Use No): 2.00 per 1000 binucleated cells
NNK-induced MN, Mean ± SE (History of Alcohol Use Yes): 2.61 ± 0.15 per 1000 binucleated cells
NNK-induced MN, Median (History of Alcohol Use Yes): 2.00 per 1000 binucleated cells
NNK-induced NBUDs, Mean ± SE (History of Alcohol Use Yes): 0.11 ± 0.04 per 1000 binucleated cells
NNK-induced NBUDs, Median (History of Alcohol Use Yes): 0.00 per 1000 binucleated cells
NNK-induced NPBs, Mean ± SE (History of Alcohol Use Yes): 2.32 ± 0.12 per 1000 binucleated cells
NNK-induced NPBs, Median (History of Alcohol Use Yes): 2.00 per 1000 binucleated cells
NNK-induced MN, Mean ± SE (Males): 2.63 ± 0.11 per 1000 binucleated cells
NNK-induced MN, Median (Males): 3.0 per 1000 binucleated cells
NNK-induced NBUDs, Mean ± SE (Males): 0.12 ± 0.03 per 1000 binucleated cells
NNK-induced NBUDs, Median (Males): 0.0 per 1000 binucleated cells
NNK-induced NPBs, Mean ± SE (Males): 2.27 ± 0.10 per 1000 binucleated cells
NNK-induced NPBs, Median (Males): 2.0 per 1000 binucleated cells
NNK-induced MN, Mean ± SE (Overall): 2.62±0.10 per 1000 binucleated cells and 2.62 ± 0.1 per 1000 binucleated cells
NNK-induced MN, Median (Overall): 3.0 per 1000 binucleated cells and 3 per 1000 binucleated cells
NNK-induced NBUDs, Mean ± SE (Overall): 0.12±0.03 per 1000 binucleated cells
NNK-induced NBUDs, Median (Overall): 0.0 per 1000 binucleated cells and 0 per 1000 binucleated cells
NNK-induced NPBs, Mean ± SE (Overall): 2.38±0.09 per 1000 binucleated cells
NNK-induced NPBs, Median (Overall): 2.0 per 1000 binucleated cells and 2 per 1000 binucleated cells
NNK-induced MN, Mean ± SE (Years smoked > 32): 2.69 ± 0.12 per 1000 binucleated cells
NNK-induced MN, Median (Years smoked > 32): 3.0 per 1000 binucleated cells
NNK-induced NBUDs, Mean ± SE (Years smoked > 32): 0.13 ± 0.04 per 1000 binucleated cells
NNK-induced NBUDs, Median (Years smoked > 32): 0.0 per 1000 binucleated cells
NNK-induced NPBs, Mean ± SE (Years smoked > 32): 2.39 ± 0.09 per 1000 binucleated cells
NNK-induced NPBs, Median (Years smoked > 32): 2.0 per 1000 binucleated cells
NNK-induced MN, Mean ± SE (Years smoked ≦ 32): 2.33 ± 1.02 per 1000 binucleated cells
NNK-induced MN, Median (Years smoked ≦ 32): 2.0 per 1000 binucleated cells
NNK-induced NBUDs, Mean ± SE (Years smoked ≦ 32): 0.06 ± 0.04 per 1000 binucleated cells
NNK-induced NBUDs, Median (Years smoked ≦ 32): 0.0 per 1000 binucleated cells
NNK-induced NPBs, Mean ± SE (Years smoked ≦ 32): 2.36 ± 0.19 per 1000 binucleated cells
NNK-induced NPBs, Median (Years smoked ≦ 32): 2.0 per 1000 binucleated cells
Control Subjects, % with 1 or 2 NNK-induced MN [1]: 49% and 49.2%
Control Subjects, % with 3 or 4 NNK-induced MN [1]: 44.6%
Control Subjects, % with ≧5 NNK-induced MN [1]: 6% and 6.2%
Control Subjects, No. with 1 or 2 NNK-induced MN [1]: 64
Control Subjects, No. with 3 or 4 NNK-induced MN [1]: 58
Control Subjects, No. with ≧5 NNK-induced MN [1]: 8
Case Patients, % with 1 or 2 NNK-induced MN [2]: 4% and 3.6%
Case Patients, % with 3 or 4 NNK-induced MN [2]: 56.1%
Case Patients, No. with 1 or 2 NNK-induced MN [2]: 5
Case Patients, No. with 3 or 4 NNK-induced MN [2]: 78
Case Patients, No. with ≧5 NNK-induced MN [2]: 56
Increase in NNK-induced MN frequency, lung cancer patients over controls [3]: 1.6 fold
Increase in NNK-induced NBUD frequency, lung cancer patients over controls [3]: 8.9 fold
Increase in NNK-induced NPB frequency, lung cancer patients over controls [3]: 3.4 fold
Control Subjects, % with 0 NNK-induced NBUDs [4]: 87% and 86.9%
Control Subjects, % with 0 or 2 NNK-induced NPBs [4]: 65% and 64.6%
Control Subjects, % with 1 NNK-induced NBUDs [4]: 11.5%
Control Subjects, % with 3 or 5 NNK-induced NPBs [4]: 35.4%
Control Subjects, No. with 0 NNK-induced NBUDs [4]: 113
Control Subjects, No. with 0 or 2 NNK-induced NPBs [4]: 84
Control Subjects, No. with 1 NNK-induced NBUDs [4]: 15
Control Subjects, No. with 3 or 5 NNK-induced NPBs [4]: 46
Control Subjects, No. with ≧2 NNK-induced NBUDs [4]: 2
Control Subjects, No. with ≧6 NNK-induced NPBs [4]: 0
Case Patients, % with 0 NNK-induced NBUDs [5]: 35% and 34.5%
Case Patients, % with 1 NNK-induced NBUDs [5]: 42.5%
Case Patients, % with 3 or 5 NNK-induced NPBs [5]: 10.8%
Case Patients, No. with 0 NNK-induced NBUDs [5]: 48
Case Patients, No. with 0 or 2 NNK-induced NPBs [5]: 0
Case Patients, No. with 1 NNK-induced NBUDs [5]: 59
Case Patients, No. with 3 or 5 NNK-induced NPBs [5]: 15
Case Patients, No. with ≧2 NNK-induced NBUDs [5]: 32
Case Patients, No. with ≧6 NNK-induced NPBs [5]: 124
